In paper PMC11761228, “Cinnamic Acid Compounds (p-Coumaric, Ferulic, and p-Methoxycinnamic Acid) as Effective Antibacterial Agents Against Colistin-Resistant Acinetobacter baumannii” (Antibiotics, 2025):
Values after ≈ are worked out from the molar mass of the structure shown.

Assays:
[1] = system: COLR-Ab isolates; experiment: BD Phoenix100 automated antibiotic susceptibility testing; type: cell-based, Acinetobacter baumannii; set-up: key to Susceptibility category: Resistant; Intermediate; Susceptible; conditions: for MIC: Acinetobacter baumannii; for Susceptibility category: CLSI criteria
Description: Five COLR-Ab strains isolated from various clinical specimens were obtained between 2016 and 2017 from the Microbiology Department of the Central Laboratory of Akdeniz University Hospital, Antalya, Turkey. All isolates were isolated from tracheal samples obtained from patients hospitalized in the intensive care unit. The stock solutions of A. baumannii strains were cultivated in blood agar (Becton Dickinson, Franklin Lakes, NJ, USA) at 35 ± 2 °C for 18–24 h. Identification of the colonies was confirmed using Matrix-Assisted Laser Desorption/Ionization Time-of-Flight (MALDI-TOF) mass spectroscopy (Bruker Daltonics, Bremen, Germany). […] The automated system was evaluated according to the criteria of the CLSI. […] E. coli NCTC 13846 COL was used as a quality control strain in broth dilution method to verify the MIC values. The isolates were stored at −80 °C until use and sub-cultured on blood agar for in vitro testing.

[2] = system: A. baumannii isolates; conditions: A. baumannii isolates, combination with COL; cited from earlier work
[3] = system: COLR-Ab isolates; experiment: Broth microdilution MIC determination (CLSI); type: cell-based, Acinetobacter baumannii
Description: The broth microdilution method, as recommended by the CLSI, was used to determine the MIC values of COL, p-CA, FA, and p-MCA [46]. The serial two-fold dilutions of antimicrobial agents were prepared using 96-well microplates with cation-adjusted Mueller-Hinton Broth (MHB) (CAMHB, Merck KGaA, Darmstadt, Germany). Firstly, an initial concentration of 8192 µg/mL was chosen to determine the MIC values of all compounds against COLR-Ab isolates. […] The bacterial suspension was adjusted to the 0.5 McFarland standard and added to each well (final bacterial concentration: 5 × 10^5 colony forming units [CFU]/mL). Additionally, the microdilution plates included controls for bacterial growth (CAMHB + bacteria) and medium sterility (CAMHB). Microdilution plates were incubated at 35 ± 2 °C for 18–24 h. The MIC values were calculated by comparing the growth densities in the antibiotic-containing wells to those in the control wells used in each test set. Each experiment was conducted in triplicate.

[4] = system: Escherichia coli NCTC 13846; experiment: Broth microdilution MIC, quality control strain; type: cell-based; conditions: E. coli NCTC 13846 quality control strain
Description: (§1) Five COLR-Ab strains isolated from various clinical specimens were obtained between 2016 and 2017 from the Microbiology Department of the Central Laboratory of Akdeniz University Hospital, Antalya, Turkey. All isolates were isolated from tracheal samples obtained from patients hospitalized in the intensive care unit. The stock solutions of A. baumannii strains were cultivated in blood agar (Becton Dickinson, Franklin Lakes, NJ, USA) at 35 ± 2 °C for 18–24 h. Identification of the colonies was confirmed using Matrix-Assisted Laser Desorption/Ionization Time-of-Flight (MALDI-TOF) mass spectroscopy (Bruker Daltonics, Bremen, Germany). […] The automated system was evaluated according to the criteria of the CLSI. The colistin broth disk elution method was used to test COL sensitivity, and all five isolates selected for the study were resistant to COL. E. coli NCTC 13846 COL was used as a quality control strain in broth dilution method to verify the MIC values. The isolates were stored at −80 °C until use and sub-cultured on blood agar for in vitro testing.
The broth microdilution method, as recommended by the CLSI, was used to determine the MIC values of COL, p-CA, FA, and p-MCA [46]. […] The MIC values were calculated by comparing the growth densities in the antibiotic-containing wells to those in the control wells used in each test set. […]

[5] = system: biofilm formation of COLR-Ab isolates; experiment: Antibiofilm activity, microtiter plate-based crystal violet technique; type: cell-based, Acinetobacter baumannii; conditions: all COL doses except 1 μg/mL for COLR-Ab4; COLR-Ab1, 3, 4, 5
Description: Following the incubation period, the microtiter plates were gently washed three times with PBS. Subsequently, 200 µL of methanol (99%) was added to each well and left for 15 min. The methanol was then removed from the wells and the plate was left to dry for approximately 30 min, thus completing the fixation process. Then, 200 µL of 0.1% CV solution was added to each well and incubated for 20 min at room temperature. The plates were washed three times with PBS in order to remove the excess stain, and then 150 μL of 95% ethanol was added to the wells and incubated for 20 min. The optical density of the CV-stained biofilm was measured at a wavelength of 575 nm using a Thermo Labsystem Multiscan Spectrum microtiter plate reader (Thermolabsystem, Chantilly, VA, USA). Each experiment was conducted in triplicate.
In order to evaluate the antibiofilm activity of COL, p-CA, FA, and p-MCA, a 96-well microtiter plate-based CV test was carried out, with minor modifications to the methods previously described by Kırmusaoglu (2019) and Haney et al. (2021). Briefly, bacteria were inoculated into MHB medium containing 0.2% glucose and incubated at 37 °C for 16–20 h. The bacterial suspension, adjusted to 0.5 McFarland using the same medium, was prepared to a final concentration of 5 × 10^5 CFU/mL and inoculated into 96-well flat-bottom microtitre plates. […] Wells containing only medium were used as negative controls (MHB), and wells containing only medium and bacteria were used as growth controls. The plates were then incubated overnight at 35 ± 2 °C in a normal atmosphere. Following incubation, CV staining procedures were carried out in a similar manner to Section 4.4.
The antibiofilm index was calculated using the following formula:% Biofilm Mass = (100 × Sample OD575/Growth Control OD575)

[6] = system: COLR-Ab isolates; experiment: Colistin broth disk elution method; type: cell-based, Acinetobacter baumannii; set-up: key to Susceptibility category: Resistant; Intermediate; Susceptible
Description: as §1

[7] = COLR-Ab1, BD Phoenix 100 system
[8] = COLR-Ab2, BD Phoenix 100 system
[9] = COLR-Ab3, BD Phoenix 100 system
[10] = COLR-Ab4, BD Phoenix 100 system
[11] = COLR-Ab5, BD Phoenix 100 system
[12] = COLR-Ab1, colistin broth disk elution
[13] = COLR-Ab2, colistin broth disk elution
[14] = COLR-Ab3, colistin broth disk elution
[15] = COLR-Ab4, colistin broth disk elution
[16] = COLR-Ab5, colistin broth disk elution

Molecule	MIC [1, 7] [µg/mL]	MIC [1, 8] [µg/mL]	MIC [1, 9] [µg/mL]	MIC [1, 10] [µg/mL]	MIC [1, 11] [µg/mL]	Susceptibility category [1, 7]	Susceptibility category [1, 8]	Susceptibility category [1, 9]	Susceptibility category [1, 10]	Susceptibility category [1, 11]	Combination effect with COL in words [2]	also measured
NCC[C@H](O)C(=O)N[C@@H]1C[C@H](N)[C@@H](O[C@H]2O[C@H](CN)[C@@H](O)[C@H](O)[C@H]2O)[C@H](O)[C@H]1O[C@H]1O[C@H](CO)[C@@H](O)[C@H](N)[C@H]1O [AMK, Amikacin]	≤ 4	> 16	> 16	> 16	> 16	S	R	R	R	R		
CNC(C)C1CCC(N)C(OC2C(N)CC(N)C(OC3OCC(C)(O)C(NC)C3O)C2O)O1 (stereo not shown) [GEN, Gentamicin]	≤ 1	> 4	> 4	> 4	> 4	S	R	R	R	R		
C[C@@H](O)[C@H]1C(=O)N2C(C(=O)O)=C(SCCN=CN)C[C@H]12 [IPM, Imipenem]	≤ 0.25	> 8	4 (≈ 13.4 µM)	> 8	> 8	S	R	I	R	R		
C[C@@H](O)[C@H]1C(=O)N2C(C(=O)O)=C(S[C@@H]3CN[C@H](C(=O)N(C)C)C3)[C@H](C)[C@H]12 [MEM, Meropenem]	≤ 0.125	> 8	> 8	> 8	> 8	S	R	R	R	R		
CCN[C@@H]1C[C@H](N)[C@@H](O[C@H]2OC(CN)=CC[C@H]2N)[C@H](O)[C@H]1O[C@H]1OC[C@](C)(O)[C@H](NC)[C@H]1O [NET, Netilmicin]	1 (≈ 2.1 µM)	> 4	> 4	> 4	> 4	S	R	R	R	R		
O=C(O)/C=C/c1ccc(O)c(O)c1 [caffeic acid]											Synergistic activity	
O=C(O)c1cc(O)c(O)c(O)c1 [gallic acid]											Synergistic activity	
O=C(O)c1ccc(O)c(O)c1 [protocatechuic acid]											Synergistic activity	
colistin												MIC ([3]; COLR-Ab1): 32 µg/mL; MIC ([3]; COLR-Ab2): 64 µg/mL; MIC ([3]; COLR-Ab3): 64 µg/mL; MIC ([3]; COLR-Ab4): 128 µg/mL; MIC ([3]; COLR-Ab5): 64 µg/mL; MIC [4]: 4 µg/mL; Inhibition of biofilm formation [5]: 19.7–75.2%; MIC [6, 12]: > 4 µg/mL; Susceptibility category [6, 12]: R; MIC [6, 13]: > 4 µg/mL; Susceptibility category [6, 13]: R; MIC [6, 14]: > 4 µg/mL; Susceptibility category [6, 14]: R; MIC [6, 15]: > 4 µg/mL; Susceptibility category [6, 15]: R; MIC [6, 16]: > 4 µg/mL; Susceptibility category [6, 16]: R
